In patent publication US20220282217A1, “COMPOSITIONS AND METHODS FOR PREPARING T CELL COMPOSITIONS AND USES THEREOF” (priority 2019, published 2022):
Read-outs that look alike come from different tables or passages of the source. Where a SMILES comes first, the peptide text is derived from it.

Molecular target: HLA-A02.01 (Homo sapiens, UniProt P04439, D140Y/D185E/D98H/E176V/E277Q/G131W/G231S/I119V/I121R/I166T/I218V/L300P/L318F/N151K/N90K/P208A/P217A/Q86G/Q94H/R138H/R169H/T345S)
Assay: Class I MHC peptide binding affinity (displacement of radiolabeled reference peptide)
Summary of the method: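 Read-out: radioactivity of reference peptide retained on MHCI, separated from free label by gel-filtration size exclusion. Competing peptides are titrated against the preformed complexes and incubated two days beforehand.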

[1] = allele A02.01, read-out: Observed Affinity (IC50, (nM))
[2] = Observed Affinity (IC50, (nM)), allele A02.01

Row | Compound | IC50 [1] [nM] | also measured
1 | CSCC[C@H](NC(=O)[C@H](CCC(=O)O)NC(=O)[C@H](CC(C)C)NC(=O)[C@H](CC(C)C)NC(=O)[C@H](CC(C)C)NC(=O)[C@H](CC(=O)O)NC(=O)[C@H](CC(N)=O)NC(=O)[C@H](CC(C)C)NC(=O)[C@@H]1CCCN1)C(=O)N[C@@H](CC(C)C)C(=O)O (H-PLNDLLLEML-OH; N-terminus and C-terminus assumed) | 12000 | –
2 | CSCC[C@H](NC(=O)[C@H](CCC(=O)O)NC(=O)[C@H](CC(C)C)NC(=O)[C@H](CC(C)C)NC(=O)[C@H](CC(C)C)NC(=O)[C@H](CC(=O)O)NC(=O)[C@H](CO)NC(=O)[C@H](CC(C)C)NC(=O)[C@@H]1CCCN1)C(=O)N[C@@H](CC(C)C)C(=O)O (H-PLSDLLLEML-OH; N-terminus and C-terminus assumed) | 6470 | –
3 | CC(C)C[C@H](NC(=O)[C@H](CC(=O)O)NC(=O)[C@H](CO)NC(=O)[C@H](CCC(N)=O)NC(=O)[C@H](CCC(N)=O)NC(=O)[C@@H](N)CCC(N)=O)C(=O)N[C@@H](CCC(N)=O)C(=O)N1CCC[C@H]1C(=O)N1CCC[C@H]1C(=O)N[C@@H](C)C(=O)O (H-QQQSDLQPPA-OH; N-terminus and C-terminus assumed) | – | IC50 [2]: 646 nM
4 | CC(C)C[C@H](NC(=O)[C@H](CC(=O)O)NC(=O)[C@H](CO)NC(=O)[C@H](CCC(N)=O)NC(=O)[C@@H](N)CCC(N)=O)C(=O)N[C@@H](CCC(N)=O)C(=O)N1CCC[C@H]1C(=O)N1CCC[C@H]1C(=O)N[C@@H](C)C(=O)O (H-QQSDLQPPA-OH; N-terminus and C-terminus assumed) | – | IC50 [2]: 70 nM
5 | CC(C)C[C@H](NC(=O)[C@H](Cc1c[nH]cn1)NC(=O)[C@H](Cc1c[nH]c2ccccc12)NC(=O)[C@H](CC(C)C)NC(=O)[C@@H](N)CCCNC(=N)N)C(=O)N[C@@H](CC(C)C)C(=O)N[C@@H](CC(C)C)C(=O)N[C@@H](CCC(N)=O)C(=O)N[C@H](C(=O)O)C(C)C (H-RLWHLLLQV-OH; N-terminus and C-terminus assumed) | 1.3 | –
6 | CC(C)C[C@H](NC(=O)[C@H](Cc1c[nH]cn1)NC(=O)[C@H](Cc1c[nH]c2ccccc12)NC(=O)[C@H](CC(C)C)NC(=O)[C@@H](N)CCCNC(=N)N)C(=O)N[C@@H](CC(C)C)C(=O)N[C@@H](CC(C)C)C(=O)N[C@@H](CCC(N)=O)C(=O)N[C@H](C(=O)N[C@H](C(=O)O)[C@@H](C)O)C(C)C (H-RLWHLLLQVT-OH; N-terminus and C-terminus assumed) | 50.9 | –
7 | CC[C@H](C)[C@H](NC(=O)[C@H](CC(C)C)NC(=O)[C@H](CCC(N)=O)NC(=O)[C@@H](NC(=O)[C@@H](NC(=O)[C@@H](N)CO)[C@@H](C)O)C(C)C)C(=O)N[C@@H](CCSC)C(=O)N[C@@H](CCC(N)=O)C(=O)N[C@@H](CC(C)C)C(=O)O (H-STVQLIMQL-OH; N-terminus and C-terminus assumed) | – | Kd: 7260 nM; IC50 [2]: 8540 nM
8 | CC[C@H](C)[C@H](NC(=O)[C@@H](NC(=O)[C@@H](NC(=O)[C@H](CC(C)C)NC(=O)[C@@H](NC(=O)[C@@H]1CCCN1C(=O)CNC(=O)CNC(=O)[C@@H](NC(=O)[C@@H](N)[C@@H](C)O)[C@@H](C)CC)[C@@H](C)O)C(C)C)[C@@H](C)CC)C(=O)O (H-TIGGPTLVII-OH; N-terminus and C-terminus assumed) | 10700 | –
9 | CC[C@H](C)[C@H](NC(=O)[C@H](CCC(N)=O)NC(=O)[C@@H](N)[C@@H](C)O)C(=O)N[C@@H](CO)C(=O)N[C@@H](CO)C(=O)N[C@@H](C)C(=O)N[C@H](C(=O)N[C@@H](CCC(=O)O)C(=O)N[C@@H](Cc1ccc(O)cc1)C(=O)N[C@@H](CC(C)C)C(=O)O)[C@@H](C)O (H-TQISSATEYL-OH; N-terminus and C-terminus assumed) | – | IC50 [2]: 2640 nM
10 | CC(C)C[C@H](NC(=O)[C@@H](N)C(C)C)C(=O)N[C@H](C(=O)N[C@H](C(=O)N[C@H](C(=O)N[C@@H](CO)C(=O)N[C@H](C(=O)N[C@@H](CC(=O)O)C(=O)N[C@H](C(=O)O)C(C)C)[C@@H](C)O)[C@@H](C)O)C(C)C)[C@@H](C)O (H-VLTVTSTDV-OH) | 295 | –
11 | CC[C@H](C)[C@H](NC(=O)[C@H](CCCCN)NC(=O)[C@H](Cc1ccc(O)cc1)NC(=O)[C@@H](NC(=O)[C@@H](NC(=O)[C@H](CC(=O)O)NC(=O)[C@H](CO)NC(=O)[C@H](CCSC)NC(=O)[C@@H](N)C(C)C)[C@@H](C)O)[C@@H](C)O)C(=O)O (H-VMSDTTYKI-OH; N-terminus and C-terminus assumed) | – | IC50 [2]: 19.6 nM
12 | CC(C)C[C@H](NC(=O)[C@H](CCCNC(=N)N)NC(=O)[C@@H](N)C(C)C)C(=O)N[C@@H](CO)C(=O)N[C@@H](CO)C(=O)N[C@@H](CS)C(=O)N[C@H](C(=O)N1CCC[C@H]1C(=O)N[C@H](C(=O)N[C@@H](C)C(=O)O)C(C)C)C(C)C (H-VRLSSCVPVA-OH; N-terminus and C-terminus assumed) | 1210 | –
13 | CC[C@H](C)[C@H](NC(=O)[C@@H](NC(=O)[C@@H](NC(=O)[C@@H](N)Cc1ccc(O)cc1)[C@@H](C)CC)[C@@H](C)CC)C(=O)N[C@@H](CCC(=O)O)C(=O)N[C@@H](Cc1ccccc1)C(=O)N[C@@H](CCSC)C(=O)N[C@H](C(=O)N[C@@H](Cc1ccc(O)cc1)C(=O)NCC(=O)O)[C@@H](C)O (H-YIIIEFMTYG-OH; N-terminus and C-terminus assumed) | – | IC50 [2]: 186 nM
14 | CC[C@H](C)[C@H](NC(=O)[C@H](CC(N)=O)NC(=O)[C@H](CCSC)NC(=O)[C@H](Cc1c[nH]cn1)NC(=O)[C@H](CC(N)=O)NC(=O)CNC(=O)[C@H](CC(C)C)NC(=O)[C@@H](N)Cc1ccc(O)cc1)C(=O)N[C@@H](C)C(=O)N[C@@H](CC(N)=O)C(=O)O (H-YLGNHMNIAN-OH; N-terminus and C-terminus assumed) | – | IC50 [2]: 1340 nM
15 | CC(C)C[C@H](NC(=O)[C@H](Cc1ccccc1)NC(=O)[C@H](Cc1ccccc1)NC(=O)[C@H](CCCCN)NC(=O)[C@@H]1CCCN1C(=O)[C@H](Cc1c[nH]c2ccccc12)NC(=O)[C@H](CCCCN)NC(=O)[C@@H](NC(=O)[C@H](CC(C)C)NC(=O)[C@@H](N)Cc1ccc(O)cc1)[C@@H](C)O)C(=O)O (H-YLTKWPKFFL-OH; N-terminus and C-terminus assumed) | 42.9 | –

More lines, main results first:

Row | IC50 [1] [nM] | Compound | also measured
16 | 5930 | CC[C@H](C)[C@H](NC(=O)[C@H](CC(C)C)NC(=O)[C@@H](N)CCC(N)=O)C(=O)N[C@@H](CCSC)C(=O)N[C@@H](CCC(N)=O)C(=O)N[C@@H](CC(C)C)C(=O)N[C@@H](CCSC)C(=O)N1CCC[C@H]1C(=O)N[C@@H](Cc1ccccc1)C(=O)NCC(=O)O (H-QLIMQLMPFG-OH; N-terminus and C-terminus assumed) | Kd (EGFR T790M peptides, HLA allele A02.01, read-out: Affinity): 5210 nM
17 | 9760 | CC[C@H](C)[C@H](NC(=O)[C@H](CCSC)NC(=O)[C@@H](NC(=O)CNC(=O)[C@@H](NC(=O)[C@@H](N)CCC(N)=O)[C@@H](C)O)C(C)C)C(=O)N[C@@H](CS)C(=O)N[C@@H](C)C(=O)N[C@@H](Cc1ccc(O)cc1)C(=O)N[C@@H](CC(C)C)C(=O)O (H-QTGVMICAYL-OH; N-terminus and C-terminus assumed) | –
18 | 29.9 | CC(C)C[C@H](NC(=O)[C@H](CCCNC(=N)N)NC(=O)[C@@H](NC(=O)[C@H](CC(C)C)NC(=O)[C@@H](N)CO)C(C)C)C(=O)N[C@@H](CO)C(=O)N[C@@H](CO)C(=O)N[C@@H](CS)C(=O)N[C@H](C(=O)O)C(C)C (H-SLVRLSSCV-OH; N-terminus and C-terminus assumed) | –
19 | 1060 | CC[C@H](C)[C@H](NC(=O)[C@H](Cc1ccc(O)cc1)NC(=O)[C@H](CC(C)C)NC(=O)[C@@H](N)CO)C(=O)N[C@H](C(=O)NCC(=O)N[C@@H](Cc1ccccc1)C(=O)N[C@@H](Cc1ccc(O)cc1)C(=O)NCC(=O)O)C(C)C (H-SLYIVGFYG-OH; N-terminus and C-terminus assumed) | –
20 | 118 | CC(C)C[C@H](NC(=O)[C@H](CS)NC(=O)[C@H](Cc1c[nH]c2ccccc12)NC(=O)[C@H](CC(C)C)NC(=O)[C@H](CO)NC(=O)[C@H](CO)NC(=O)[C@H](CCCNC(=N)N)NC(=O)[C@H](CCC(N)=O)NC(=O)[C@H](CC(C)C)NC(=O)[C@@H](N)[C@@H](C)O)C(=O)O (H-TLQRSSLWCL-OH; N-terminus and C-terminus assumed) | –
21 | 4730 | CC(C)C[C@H](NC(=O)[C@H](CO)NC(=O)CNC(=O)[C@H](CC(C)C)NC(=O)[C@H](CO)NC(=O)[C@H](CCCNC(=N)N)NC(=O)[C@H](Cc1c[nH]c2ccccc12)NC(=O)[C@H](CCC(N)=O)NC(=O)[C@@H](N)C(C)C)C(=O)O (H-VQWRSLGSL-OH; N-terminus and C-terminus assumed) | –
22 | 64.5 | CC[C@H](C)[C@H](NC(=O)[C@H](CC(=O)O)NC(=O)[C@H](CC(C)C)NC(=O)[C@H](CC(C)C)NC(=O)[C@H](Cc1ccccc1)NC(=O)[C@H](Cc1ccccc1)NC(=O)[C@H](C)NC(=O)[C@@H](NC(=O)[C@@H](NC(=O)[C@@H](N)Cc1ccc(O)cc1)[C@@H](C)CC)[C@@H](C)O)C(=O)O (H-YITAFFLLDI-OH; N-terminus and C-terminus assumed) | –
23 | 2060 | CC[C@H](C)[C@H](NC(=O)[C@@H](NC(=O)[C@H](CC(C)C)NC(=O)[C@@H](N)Cc1ccc(O)cc1)C(C)C)C(=O)N[C@@H](CCC(N)=O)C(=O)N[C@@H](CC(C)C)C(=O)N[C@@H](CCC(N)=O)C(=O)N[C@@H](CC(=O)O)C(=O)N[C@@H](CCCCN)C(=O)N[C@@H](Cc1ccccc1)C(=O)O (H-YLVIQLQDKF-OH) | –
24 | 4440 | CSCC[C@H](NC(=O)[C@@H](N)Cc1ccc(O)cc1)C(=O)N[C@@H](C)C(=O)N[C@@H](CC(N)=O)C(=O)NCC(=O)N[C@@H](CO)C(=O)N[C@@H](CC(C)C)C(=O)N[C@@H](CC(C)C)C(=O)N[C@@H](CC(N)=O)C(=O)O (H-YMANGSLLN-OH; N-terminus and C-terminus assumed) | IC50 (BTK C481S peptide, HLA Allele A02.01, read-out: Affinity): 4000 nM
25 | 3280 | CSCC[C@H](NC(=O)[C@H](CCCCN)NC(=O)CNC(=O)[C@H](CC(N)=O)NC(=O)[C@H](CCC(N)=O)NC(=O)[C@@H](N)Cc1ccccc1)C(=O)N[C@@H](C)C(=O)N[C@@H](CC(C)C)C(=O)N[C@@H](CO)C(=O)O [FQNGKMALS] (H-FQNGKMALS-OH; N-terminus and C-terminus assumed) | –
